Measured values from US8937064B2, “Pyrazolo[1,5-a]pyrimidines useful as JAK2 inhibitors” (Vertex Pharmaceuticals Incorporated, priority 2007, dated 2015).

How the values were obtained:
JAK3 = target: T1, JAK3 (Homo sapiens, UniProt P52333); assay: JAK3 Inhibition Assay; format: biochemical; settings: 1 nM JAK3, 1 μM poly(Glu)4Tyr, 5 μM ATP, 25° C., 33P incorporation
T1 sequence (P52333 1-1124): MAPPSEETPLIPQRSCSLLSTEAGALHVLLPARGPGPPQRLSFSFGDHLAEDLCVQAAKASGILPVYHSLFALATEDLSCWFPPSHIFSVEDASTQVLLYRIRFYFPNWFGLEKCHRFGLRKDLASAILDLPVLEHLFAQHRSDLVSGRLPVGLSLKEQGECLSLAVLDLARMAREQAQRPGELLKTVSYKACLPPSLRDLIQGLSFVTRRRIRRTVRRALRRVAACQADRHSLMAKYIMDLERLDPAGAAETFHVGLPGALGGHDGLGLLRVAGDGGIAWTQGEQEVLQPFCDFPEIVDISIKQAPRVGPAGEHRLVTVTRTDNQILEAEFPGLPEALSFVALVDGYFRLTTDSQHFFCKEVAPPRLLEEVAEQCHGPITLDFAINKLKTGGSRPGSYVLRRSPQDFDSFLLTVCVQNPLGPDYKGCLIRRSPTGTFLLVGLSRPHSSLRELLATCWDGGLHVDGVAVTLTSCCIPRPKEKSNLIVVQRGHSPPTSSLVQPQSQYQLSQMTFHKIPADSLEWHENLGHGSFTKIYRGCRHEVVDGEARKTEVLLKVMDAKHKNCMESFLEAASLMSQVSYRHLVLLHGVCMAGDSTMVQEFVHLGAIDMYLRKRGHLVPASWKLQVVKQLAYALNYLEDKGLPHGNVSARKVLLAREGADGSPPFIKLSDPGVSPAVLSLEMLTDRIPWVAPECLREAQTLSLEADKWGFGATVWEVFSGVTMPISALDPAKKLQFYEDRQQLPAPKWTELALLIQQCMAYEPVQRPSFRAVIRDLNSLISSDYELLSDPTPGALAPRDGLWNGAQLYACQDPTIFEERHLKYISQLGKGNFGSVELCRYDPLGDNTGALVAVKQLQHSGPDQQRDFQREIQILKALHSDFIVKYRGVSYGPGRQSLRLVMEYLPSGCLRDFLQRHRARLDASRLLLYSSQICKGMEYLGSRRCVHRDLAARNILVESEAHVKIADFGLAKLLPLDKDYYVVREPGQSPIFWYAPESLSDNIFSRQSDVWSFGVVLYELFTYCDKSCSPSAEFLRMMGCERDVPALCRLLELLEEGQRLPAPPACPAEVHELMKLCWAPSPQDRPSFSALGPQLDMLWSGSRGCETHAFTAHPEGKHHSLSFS

JAK-2 enzyme = JAK-2 enzyme (Homo sapiens, UniProt O60674); assay: JAK2 Inhibition Assay
Sequence of JAK-2 enzyme (O60674 whole entry): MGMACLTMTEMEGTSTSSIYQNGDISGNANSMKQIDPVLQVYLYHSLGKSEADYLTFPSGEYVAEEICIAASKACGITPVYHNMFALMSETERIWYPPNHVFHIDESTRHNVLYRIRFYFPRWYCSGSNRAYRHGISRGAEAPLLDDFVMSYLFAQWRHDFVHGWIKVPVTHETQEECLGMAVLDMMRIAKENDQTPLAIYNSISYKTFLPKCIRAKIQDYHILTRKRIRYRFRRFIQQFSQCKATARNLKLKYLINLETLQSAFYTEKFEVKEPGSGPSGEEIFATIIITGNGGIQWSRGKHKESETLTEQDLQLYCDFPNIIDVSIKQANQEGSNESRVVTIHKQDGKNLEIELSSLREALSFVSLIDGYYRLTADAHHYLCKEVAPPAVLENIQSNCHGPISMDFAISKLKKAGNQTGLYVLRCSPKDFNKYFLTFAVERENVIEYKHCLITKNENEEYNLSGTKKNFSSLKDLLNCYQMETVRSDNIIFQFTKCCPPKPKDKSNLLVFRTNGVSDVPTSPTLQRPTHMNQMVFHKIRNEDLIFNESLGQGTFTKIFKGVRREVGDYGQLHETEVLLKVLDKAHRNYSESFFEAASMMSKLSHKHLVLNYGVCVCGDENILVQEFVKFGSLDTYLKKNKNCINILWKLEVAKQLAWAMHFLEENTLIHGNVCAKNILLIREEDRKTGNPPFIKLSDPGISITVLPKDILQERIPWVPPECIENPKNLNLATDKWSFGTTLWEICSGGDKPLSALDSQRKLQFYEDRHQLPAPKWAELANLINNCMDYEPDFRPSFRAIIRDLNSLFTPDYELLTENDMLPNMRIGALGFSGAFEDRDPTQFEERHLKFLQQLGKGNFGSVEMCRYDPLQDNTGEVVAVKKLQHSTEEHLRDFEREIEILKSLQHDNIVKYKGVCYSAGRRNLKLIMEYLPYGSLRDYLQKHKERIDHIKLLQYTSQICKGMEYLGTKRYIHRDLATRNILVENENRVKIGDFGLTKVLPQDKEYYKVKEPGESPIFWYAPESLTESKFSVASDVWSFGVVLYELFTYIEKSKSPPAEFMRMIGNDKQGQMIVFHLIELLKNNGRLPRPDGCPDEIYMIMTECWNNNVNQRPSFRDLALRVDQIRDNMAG
Procedure: Reactions were carried out in a kinase buffer containing 100 mM HEPES (pH 7.4), 1 mM DTT, 10 mM MgCl2, 25 mM NaCl, and 0.01% BSA. Substrate concentrations in the assay were 5 μM ATP (200 uCi/μmole ATP) and 1 μM poly(Glu)4Tyr. Reactions were carried out at 25° C. and 1 nM JAK3.
To each well of a 96 well polycarbonate plate was added 1.5 μl of a candidate JAK3 inhibitor along with 50 μl of kinase buffer containing 2 μM poly(Glu)4Tyr and 10 μM ATP. This was then mixed and 50 μl of kinase buffer containing 2 nM JAK3 enzyme was added to start the reaction. After 20 minutes at room temperature (25° C.), the reaction was stopped with 50 μl of 20% trichloroacetic acid (TCA) that also contained 0.4 mM ATP. The entire contents of each well were then transferred to a 96 well glass fiber filter plate using a TomTek Cell Harvester. After washing, 60 μl of scintillation fluid was added and ^33P incorporation detected on a Perkin Elmer TopCount.

CCC[C@H](Nc1cc(-c2cnn3cccnc23)ncn1)c1ccc(F)cc1 [Compound 116]
Ki (JAK3): 10 to 100 nM
Ki (JAK-2 enzyme): < 10 nM

C[C@H](Nc1cc(-c2cnn3cccnc23)ncn1)c1ccc(F)cc1F [Compound 117]
Ki (JAK3): 10 to 100 nM
Ki (JAK-2 enzyme): < 10 nM

C[C@H](Nc1cc(-c2cnn3cccnc23)ncn1)c1ccc(F)c(F)c1 [Compound 118]
Ki (JAK3): 10 to 100 nM
Ki (JAK-2 enzyme): < 10 nM

COCCNc1nc(N[C@@H](C)c2ccc(F)cc2)cc(-c2c(N)nn3cccnc23)n1 [Compound 119]
Ki (JAK3): 10 to 100 nM
Ki (JAK-2 enzyme): < 10 nM

CC(C)[C@@H](Nc1cc(-c2cnn3cccnc23)ncn1)c1ccc(F)cc1F [Compound 120]
Ki (JAK3): 100 to 500 nM
Ki (JAK-2 enzyme): 10 to 100 nM

CC(C)[C@H](Nc1cc(-c2cnn3cccnc23)ncn1)c1ccc(F)cc1F [Compound 121]
Ki (JAK3): 10 to 100 nM
Ki (JAK-2 enzyme): < 10 nM

CCC[C@H](Nc1cc(-c2cnn3cccnc23)ncn1)c1ccc(F)cc1F [Compound 122]
Ki (JAK3): 10 to 100 nM
Ki (JAK-2 enzyme): < 10 nM

CCC[C@@H](Nc1cc(-c2cnn3cccnc23)ncn1)c1ccc(F)cc1F [Compound 123]
Ki (JAK3): 100 to 500 nM
Ki (JAK-2 enzyme): 10 to 100 nM

C[C@H](Nc1cc(-c2c(N)nn3cccnc23)nc(NCCN2CCOCC2)n1)c1ccc(F)cc1 [Compound 124]
Ki (JAK3): 10 to 100 nM
Ki (JAK-2 enzyme): < 10 nM

CC(C)[C@H](Nc1cc(-c2c(N)nn3cccnc23)nc(N2CCOCC2)n1)c1ccc(F)cc1F [Compound 125]
Ki (JAK3): 100 to 500 nM
Ki (JAK-2 enzyme): 10 to 100 nM

COCCOc1nc(N[C@@H](C)c2ccc(F)cc2F)cc(-c2c(N)nn3cccnc23)n1 [Compound 126]
Ki (JAK3): < 10 nM
Ki (JAK-2 enzyme): < 10 nM

CCN(CC)C(=O)COc1nc(N[C@@H](C)c2ccc(F)cc2F)cc(-c2c(N)nn3cccnc23)n1 [Compound 127]
Ki (JAK3): 100 to 500 nM
Ki (JAK-2 enzyme): 10 to 100 nM

C[C@H](Nc1cc(-c2c(N)nn3cccnc23)nc(OCCN2CCCC2=O)n1)c1ccc(F)cc1F [Compound 128]
Ki (JAK3): 10 to 100 nM
Ki (JAK-2 enzyme): < 10 nM

CC(C)Oc1nc(N[C@@H](C)c2ccc(F)cc2F)cc(-c2c(N)nn3cccnc23)n1 [Compound 129]
Ki (JAK3): 100 to 500 nM
Ki (JAK-2 enzyme): 10 to 100 nM

C[C@H](Nc1cc(-c2c(N)nn3cccnc23)nc(OCC2CCOC2)n1)c1ccc(F)cc1F (some centres unmarked) [Compound 130]
Ki (JAK3): 10 to 100 nM
Ki (JAK-2 enzyme): < 10 nM

C[C@H](Nc1cc(-c2c(N)nn3cccnc23)nc(O)n1)c1ccc(F)cc1F [Compound 131]
Ki (JAK3): 10 to 100 nM
Ki (JAK-2 enzyme): < 10 nM

COc1nc(N[C@@H](C)c2ccc(F)cc2F)cc(-c2c(N)nn3cccnc23)n1 [Compound 132]
Ki (JAK3): < 10 nM
Ki (JAK-2 enzyme): < 10 nM

COCCN(C)c1nc(N[C@@H](C)c2ccc(F)cc2F)cc(-c2c(N)nn3cccnc23)n1 [Compound 133]
Ki (JAK3): 100 to 500 nM
Ki (JAK-2 enzyme): 10 to 100 nM

C[C@H](Nc1cc(-c2c(N)nn3ccc(C(F)(F)F)nc23)ncn1)c1ccc(F)cc1 [Compound 134]
Ki (JAK3): 10 to 100 nM
Ki (JAK-2 enzyme): 10 to 100 nM

C[C@H](Nc1cc(-c2c(N)nn3ccc(C(F)(F)F)nc23)ncn1)c1ccc(F)cc1F [Compound 135]
Ki (JAK3): 100 to 500 nM
Ki (JAK-2 enzyme): 10 to 100 nM

CC(C)[C@H](Nc1cc(-c2c(N)nn3ccc(C(F)(F)F)nc23)ncn1)c1ccc(F)cc1F [Compound 136]
Ki (JAK3): 100 to 500 nM
Ki (JAK-2 enzyme): 10 to 100 nM

CCC[C@H](Nc1cc(-c2c(N)nn3ccc(C(F)(F)F)nc23)ncn1)c1ccc(F)cc1F [Compound 137]
Ki (JAK3): 100 to 500 nM
Ki (JAK-2 enzyme): 100 to 500 nM

COC(C)(C)CCOc1nc(N[C@@H](C)c2ccc(F)cc2F)cc(-c2c(N)nn3cccnc23)n1 [Compound 138]
Ki (JAK3): 10 to 100 nM
Ki (JAK-2 enzyme): < 10 nM

C[C@H](Nc1cc(-c2c(N)nn3cccnc23)nc(OCC2CCCO2)n1)c1ccc(F)cc1F (some centres unmarked) [Compound 139]
Ki (JAK3): 10 to 100 nM
Ki (JAK-2 enzyme): < 10 nM

C[C@H](Nc1cc(-c2c(N)nn3cccnc23)nc(C#N)n1)c1ccc(F)cc1F [Compound 140]
Ki (JAK3): < 10 nM
Ki (JAK-2 enzyme): < 10 nM

CNC(=O)CC(Nc1cc(-c2cnn3cccnc23)ncn1)c1ccc(F)cc1 (centres unmarked) [Compound 141]
Ki (JAK3): 10 to 100 nM
Ki (JAK-2 enzyme): < 10 nM

C[C@H](Nc1cc(-c2c(N)nn3cccnc23)nc(OCC2CCCN2)n1)c1ccc(F)cc1F (some centres unmarked) [Compound 142]
Ki (JAK3): 100 to 500 nM
Ki (JAK-2 enzyme): 10 to 100 nM

C[C@H](Nc1cc(-c2c(N)nn3cccnc23)nc(OCC2(C)CC2)n1)c1ccc(F)cc1 [Compound 143]
Ki (JAK3): 100 to 500 nM
Ki (JAK-2 enzyme): 10 to 100 nM

C[C@H](Nc1cc(-c2cnn3cccnc23)ncn1)c1ccc(Cl)cc1 [Compound 144]
Ki (JAK3): 100 to 500 nM
Ki (JAK-2 enzyme): < 10 nM

CC[C@H](Nc1cc(-c2cnn3cccnc23)ncn1)c1ccc(F)c(F)c1 [Compound 145]
Ki (JAK3): 10 to 100 nM
Ki (JAK-2 enzyme): < 10 nM

C[C@@H](Nc1cc(-c2cnn3cccnc23)ncn1)c1ccc(Cl)cc1 [Compound 146]
Ki (JAK3): 500 to 5000 nM
Ki (JAK-2 enzyme): 10 to 100 nM

C[C@H](Nc1cc(-c2cnn3cccnc23)nc(N)n1)c1ccc(F)cc1F [Compound 147]
Ki (JAK3): 10 to 100 nM
Ki (JAK-2 enzyme): < 10 nM

C[C@H](Nc1cc(-c2c(N)nn3cccnc23)nc(OCC2CCC2)n1)c1ccc(F)cc1 [Compound 148]
Ki (JAK3): 100 to 500 nM
Ki (JAK-2 enzyme): 10 to 100 nM

CC(C)OCCOc1nc(N[C@@H](C)c2ccc(F)cc2)cc(-c2c(N)nn3cccnc23)n1 [Compound 149]
Ki (JAK3): 10 to 100 nM
Ki (JAK-2 enzyme): < 10 nM

C#CCOc1nc(N[C@@H](C)c2ccc(F)cc2)cc(-c2c(N)nn3cccnc23)n1 [Compound 150]
Ki (JAK3): 10 to 100 nM
Ki (JAK-2 enzyme): < 10 nM

CC#CCOc1nc(N[C@@H](C)c2ccc(F)cc2)cc(-c2c(N)nn3cccnc23)n1 [Compound 151]
Ki (JAK3): 100 to 500 nM
Ki (JAK-2 enzyme): 10 to 100 nM

CC(C)=CCOc1nc(N[C@@H](C)c2ccc(F)cc2)cc(-c2c(N)nn3cccnc23)n1 [Compound 152]
Ki (JAK3): 10 to 100 nM
Ki (JAK-2 enzyme): 10 to 100 nM

CCCOc1nc(N[C@@H](C)c2ccc(F)cc2)cc(-c2c(N)nn3cccnc23)n1 [Compound 153]
Ki (JAK3): 10 to 100 nM
Ki (JAK-2 enzyme): < 10 nM

C[C@H](Nc1cc(-c2c(N)nn3cccnc23)nc(OCCCN(C)C)n1)c1ccc(F)cc1 [Compound 154]
Ki (JAK3): 10 to 100 nM
Ki (JAK-2 enzyme): < 10 nM

CC#CCCOc1nc(N[C@@H](C)c2ccc(F)cc2)cc(-c2c(N)nn3cccnc23)n1 [Compound 155]
Ki (JAK3): 100 to 500 nM
Ki (JAK-2 enzyme): < 10 nM

C[C@H](Nc1cc(-c2c(N)nn3cccnc23)nc(OCC(F)(F)F)n1)c1ccc(F)cc1 [Compound 156]
Ki (JAK3): 100 to 500 nM
Ki (JAK-2 enzyme): < 10 nM

C[C@H](Nc1cc(-c2c(N)nn3cccnc23)nc(OCCC2CC2)n1)c1ccc(F)cc1 [Compound 157]
Ki (JAK3): 100 to 500 nM
Ki (JAK-2 enzyme): 10 to 100 nM

CC1CC1COc1nc(N[C@@H](C)c2ccc(F)cc2)cc(-c2c(N)nn3cccnc23)n1 (some centres unmarked) [Compound 158]
Ki (JAK3): 100 to 500 nM
Ki (JAK-2 enzyme): 10 to 100 nM

C[C@H](Nc1cc(-c2c(N)nn3cccnc23)nc(OC[C@H]2CO2)n1)c1ccc(F)cc1 [Compound 159]
Ki (JAK3): 100 to 500 nM
Ki (JAK-2 enzyme): < 10 nM

C[C@H](Nc1cc(-c2c(N)nn3cccnc23)nc(OCCOC(C)(C)C)n1)c1ccc(F)cc1 [Compound 160]
Ki (JAK3): 100 to 500 nM
Ki (JAK-2 enzyme): 10 to 100 nM

C[C@H](Nc1cc(-c2c(N)nn3cccnc23)nc(O)n1)c1ccc(F)cc1 [Compound 161]
Ki (JAK3): 10 to 100 nM
Ki (JAK-2 enzyme): < 10 nM
